Legend:
Plasmopara viticola = experiment: Preventive foliar spray test on grape inoculated with Plasmopara viticola zoosporangia (Test Examples 3 and 4); type: in vivo; details: grape (variety: Berry A), flowable diluted to 200 ppm, foliar spray before inoculation, observed after 1 day at 23° C. plus 6 days in green house; Test Example 4
Protocol: Additionally, the control effect was evaluated by visually observing the area of a lesion on a sample plant in investigation and comparing the area of a lesion on a non-treatment plant and the area of a lesion on a treated plant with the compound of the present invention.
Sand loam was compacted in a plastic pot, and a grape (variety: Berry A) was seeded and grown in a green house for 40 days. The compounds of the present invention (I-1), (I-2), (I-6) to (I-12), (II-1), (III-1) and (IV-1) were formulated to flowable according to Formulation Example 6, then, diluted with water to provide given concentration of 200 ppm, and these diluted solutions were sprayed onto stems and leaves so as to give sufficient adhesion on the surface of grape leaves. After spraying, the liquid on the stem was air-dried, and a suspension of zoosporangiua of Plasmopara viticola (about 10,000 zoosporangiua were contained in 1 ml of the suspension) was inoculated by spraying. The amount of the sprayed suspension was about 2 ml for one plant. After inoculation, the plant was first grown for one day at 23° C. under 90% or more humidity, then further grown for 6 days in the green house, which was 24° C. in daytime and 20° C. in night-time.
Then, the areas of a lesion of the plants were obserbed. […]

Phytophthora infestans = type: in vivo; details: tomato (variety: Ponterosa), flowable diluted to 200 ppm, foliar spray before inoculation, observed after 1 day at 23° C. plus 4 days in green house; Test Example 2

C#CCOC(C(=O)Nc1cccnc1-c1ccc(OC)c(OC)c1)c1ccc(Cl)cc1 (stereo not drawn) [I-1, N-(2-(3,4-dimethoxyphenyl)pyridine-3-yl)-2-(2-propynyloxy)-2-(4-chlorophenyl)acetamide]
melting point: 125.2 °C

COc1ccc(-c2ncccc2NC(=O)C(O)c2ccc(C)cc2)cc1OC (stereo not drawn) [I-4, N-{2-(3,4-dimethoxyphenyl)pyridine-3-yl}-2-hydroxy-2-(4-methylphenyl)acetamide]
lesion area on treated plants relative to the lesion area on a non-treatment plant (Plasmopara viticola): not more than 10%

COc1ccc(-c2ncccc2NC(=O)C(=C(Cl)Cl)c2ccc(Cl)cc2)cc1OC [I-11, N-(2-(3,4-dimethoxyphenyl)-pyridine-3-yl)-2-(chlorophenyl)-3,3-dichloroacrylamide]
lesion area on treated plants relative to the lesion area on a non-treatment plant (Phytophthora infestans): not more than 10%
